In patent US8592581B2, “Trisubstituted purine derivatives” (Cyclacel Limited, priority 2007, dated 2013):

Columns and labels:
CYP3A4 [1] = molecular target: T1, CYP3A4 (Homo sapiens (Human), UniProt P08684); assay: CYP3A4 inhibition, human liver microsomes, midazolam; type: in vitro ADME; settings: human liver microsomes
Experimental: (§1) Six test compound concentrations (0.05, 0.25, 0.5, 2.5, 5, 25 μM in DMSO; final DMSO concentration 0.26%) were incubated with human liver microsomes (0.25 mg/mL) and NADPH (1 mM) in the presence of the probe substrate midazolam (2.5 μM) for 5 min at 37° C. The selective CYP3A4 inhibitor, ketoconazole, was screened alongside the test compounds as a positive control.
(§2) For the CYP1A incubations, the reactions were terminated by the addition of methanol, and the formation of the metabolite, resorufin, was monitored by fluorescence (excitation wavelength=535 nm, emission wavelength=595 nm). For the CYP2C9, CYP2C19, CYP2D6, and CYP3A4 incubations, the reactions were terminated by the addition of methanol containing internal standard. The samples were then centrifuged, and the supernatants were combined, for the simultaneous analysis of 4-hydroxytolbutamide, 4-hydroxymephenyloin, dextrorphan, and 1-hydroxymidazolam plus internal standard by LC-MS/MS using generic LC-MS/MS conditions. Formic acid in deionised water (final concentration=0.1%) was added to the final sample prior to analysis.

CYP2D6 [2] = molecular target: T2, CYP2D6 (Homo sapiens (Human), UniProt P10635); assay: Cytochrome P450 substrate identification (Bactosomes) CYP2D6; type: in vitro ADME; settings: pH 7.4, 5 μM test compound, up to 45 min, read-out: half life in the presence of CYP2D6
Experimental: (§3) cDNA expressed human CYP450 enzyme preparations co-expressed with human NADPH cytochrome P450 reductase (Bactosomes™) were supplied by Cypex Ltd. Bactosomes™ (final P450 concentration CYP1A2 100 pmol/mL, CYP2C8 50 pmol/mL, CYP2C9 25 pmol/mL, CYP2C19 100 pmol/mL, CYP2D6 50 pmol/mL and CYP3A4 25 pmol/mL), 0.1M phosphate buffer pH7.4 and test compound (final substrate concentration=5 μM; final DMSO concentration=0.25%) were pre-incubated at 37° C. prior to the addition of NADPH (final concentration=1 mM) to initiate the reaction. Incubations were also performed using control bactosomes (no P450 enzymes present) to reveal any non-enzymatic degradation. The final incubation volume was 25 μL. Compounds known to be metabolised specifically by each CYP450 isoform were used as control compounds.
(§4) Each compound was incubated singly for 0, 5, 15, 30 and 45 min with each CYP isoform. The reactions were stopped by the addition of 50 μL methanol containing internal standard at the appropriate time points. The incubation plates were centrifuged at 2500 rpm for 20 min at 4° C. to precipitate the protein. Following protein precipitation, the sample supernatants were combined in cassettes of up to four compounds and analysed using generic LC-MS/MS conditions.
(§5) The In peak area ratio (which has been corrected for any loss in the incubations with the control bactosomes) was plotted against time and the gradient of the line determined.
(§6) The elimination rate constant (k)=(−gradient)

CYP2D6 [3] = molecular target: T2, CYP2D6; assay: CYP2D6 inhibition, human liver microsomes, dextromethorphan; type: in vitro ADME
Experimental: (§7) Six test compound concentrations (0.05, 0.25, 0.5, 2.5, 5, 25 μM in DMSO; final DMSO concentration=0.25%) were incubated with human liver microsomes (0.5 mg/mL) and NADPH (1 mM) in the presence of the probe substrate dextromethorphan (5 μM) for 30 min at 37° C. The selective CYP2D6 inhibitor, quinidine, was screened alongside the test compounds as a positive control.
as §2

CYP2C8 = CYP2C8 (Homo sapiens (Human), UniProt P10632); assay: Cytochrome P450 substrate identification (Bactosomes) CYP2C8; type: in vitro ADME; settings: pH 7.4, 5 μM test compound, up to 45 min, read-out: half life in the presence of CYP2C8
Experimental: as §3, §4, §5, §6

CYP2C19 [4] = molecular target: T3, CYP2C19 (Homo sapiens (Human), UniProt P33261); assay: CYP2C19 inhibition, human liver microsomes, mephenyloin; type: in vitro ADME
Experimental: as §7, with “mephenyloin (25” for “dextromethorphan (5”, “60” for “30”, “CYP2C19” for “CYP2D6”, “tranylcypromine,” for “quinidine,”
as §2

CYP2C9 [5] = molecular target: T4, CYP2C9 (Homo sapiens (Human), UniProt P11712); assay: Cytochrome P450 substrate identification (Bactosomes) CYP2C9; type: in vitro ADME; settings: pH 7.4, 5 μM test compound, up to 45 min, read-out: half life in the presence of CYP2C9
Experimental: as §3, §4, §5, §6

CYP2C19 [6] = molecular target: T3, CYP2C19; assay: Cytochrome P450 substrate identification (Bactosomes) CYP2C19; type: in vitro ADME; settings: pH 7.4, 5 μM test compound, up to 45 min, read-out: half life in the presence of CYP2C19
Experimental: as §3, §4, §5, §6

CYP1A = CYP1A (Homo sapiens, UniProt P05177); assay: CYP1A inhibition, human liver microsomes, ethoxyresorufin; type: in vitro ADME
Experimental: as §1, with “concentration=0.35%)” for “concentration 0.26%)”, “ethoxyresorufin (0.5” for “midazolam (2.5”, “CYP1A” for “CYP3A4”, “alpha-naphthoflavone,” for “ketoconazole,”
as §2

CYP2C9 [7] = molecular target: T4, CYP2C9; assay: CYP2C9 inhibition, human liver microsomes, tolbutamide; type: in vitro ADME
Experimental: as §7, with “(1” for “(0.5”, “tolbutamide (120” for “dextromethorphan (5”, “60” for “30”, “CYP2C9” for “CYP2D6”, “sulphaphenazole,” for “quinidine,”
as §2

CYP3A4 [8] = molecular target: T1, CYP3A4; assay: Cytochrome P450 substrate identification (Bactosomes) CYP3A4; type: in vitro ADME; settings: human, pH 7.4; Bactosomes, 5 μM test compound, up to 45 min; read-out: half life in the presence of CYP3A4
Experimental: as §3, §4, §5, §6

Mcl-1 = Mcl-1 downregulation in H460 cells by Western blotting; type: cell-based; settings: H460 cells, 24 hours, top concentration close to IC50
Experimental: The media was removed and the adherent cells washed with 5 ml PBS. […] Proteins were transferred to nitrocellulose membranes (Schleicher & Schuell, Dassel, Germany) using wet electrophoretic transfer. Membranes were stained with Ponceau S to confirm equal loading before blocking in 5% nonfat milk in PBS with 0.05% Tween 20 (PBSTM) for 2 hours. Membranes were incubated overnight at 4° C. with primary antibody (rabbit polyclonal antibody to Mcl-1, Santa Cruz), diluted 1:1000 in PBSTM. Membranes were washed 2×5 minute followed by 2×10 minute in PBS and 0.05% Tween 20 (PBST) and incubated for 1 hour in PBSTM containing horseradish peroxidase-conjugated secondary antibody. Membranes were washed as before and incubated with enhanced chemiluminescence solution (Amersham) and exposed to X-ray film (Amersham).
In a second experiment the effect of additional compounds on Mcl-1 levels was investigated.

T4 sequence (P11712 whole entry): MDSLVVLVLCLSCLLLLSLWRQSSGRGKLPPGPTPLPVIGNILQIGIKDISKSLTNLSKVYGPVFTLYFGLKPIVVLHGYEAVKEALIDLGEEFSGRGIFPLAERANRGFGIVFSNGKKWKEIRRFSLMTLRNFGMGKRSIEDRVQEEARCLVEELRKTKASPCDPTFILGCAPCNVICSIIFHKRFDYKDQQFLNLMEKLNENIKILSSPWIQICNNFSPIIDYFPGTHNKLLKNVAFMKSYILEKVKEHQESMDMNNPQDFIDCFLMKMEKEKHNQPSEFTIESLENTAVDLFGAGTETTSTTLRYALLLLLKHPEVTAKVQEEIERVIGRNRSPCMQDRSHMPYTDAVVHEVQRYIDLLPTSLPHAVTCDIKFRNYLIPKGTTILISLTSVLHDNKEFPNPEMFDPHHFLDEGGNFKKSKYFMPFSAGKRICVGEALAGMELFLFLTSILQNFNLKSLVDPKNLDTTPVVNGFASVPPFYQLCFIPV
CYP1A, sequence (P05177 2-516 limits assumed): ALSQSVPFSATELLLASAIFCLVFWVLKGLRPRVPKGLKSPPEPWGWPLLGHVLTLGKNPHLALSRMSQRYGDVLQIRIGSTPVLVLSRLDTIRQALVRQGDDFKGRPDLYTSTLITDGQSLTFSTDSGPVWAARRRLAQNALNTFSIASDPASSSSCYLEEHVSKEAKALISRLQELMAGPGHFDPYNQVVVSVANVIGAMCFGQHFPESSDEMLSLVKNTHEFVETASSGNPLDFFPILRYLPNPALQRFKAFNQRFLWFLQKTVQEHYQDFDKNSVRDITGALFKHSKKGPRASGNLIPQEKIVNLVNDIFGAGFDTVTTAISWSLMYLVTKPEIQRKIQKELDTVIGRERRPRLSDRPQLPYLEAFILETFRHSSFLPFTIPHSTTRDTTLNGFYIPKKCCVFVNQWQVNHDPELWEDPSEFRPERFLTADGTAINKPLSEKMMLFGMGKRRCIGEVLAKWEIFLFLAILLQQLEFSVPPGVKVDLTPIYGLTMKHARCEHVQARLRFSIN
CYP2C8, sequence (P10632 whole entry): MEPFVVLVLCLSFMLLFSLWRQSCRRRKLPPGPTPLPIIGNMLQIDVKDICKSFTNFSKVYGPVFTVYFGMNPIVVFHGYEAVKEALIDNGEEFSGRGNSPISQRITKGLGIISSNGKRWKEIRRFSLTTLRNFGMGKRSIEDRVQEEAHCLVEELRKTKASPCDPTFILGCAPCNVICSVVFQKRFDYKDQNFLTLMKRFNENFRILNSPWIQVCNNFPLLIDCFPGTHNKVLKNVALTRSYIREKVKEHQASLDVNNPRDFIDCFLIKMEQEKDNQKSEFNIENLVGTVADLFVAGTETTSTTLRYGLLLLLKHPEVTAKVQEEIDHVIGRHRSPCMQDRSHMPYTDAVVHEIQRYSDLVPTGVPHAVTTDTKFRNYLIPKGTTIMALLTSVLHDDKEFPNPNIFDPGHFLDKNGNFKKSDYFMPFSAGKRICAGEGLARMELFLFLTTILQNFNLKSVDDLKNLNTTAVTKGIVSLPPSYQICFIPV
T2 sequence (P10635 whole entry): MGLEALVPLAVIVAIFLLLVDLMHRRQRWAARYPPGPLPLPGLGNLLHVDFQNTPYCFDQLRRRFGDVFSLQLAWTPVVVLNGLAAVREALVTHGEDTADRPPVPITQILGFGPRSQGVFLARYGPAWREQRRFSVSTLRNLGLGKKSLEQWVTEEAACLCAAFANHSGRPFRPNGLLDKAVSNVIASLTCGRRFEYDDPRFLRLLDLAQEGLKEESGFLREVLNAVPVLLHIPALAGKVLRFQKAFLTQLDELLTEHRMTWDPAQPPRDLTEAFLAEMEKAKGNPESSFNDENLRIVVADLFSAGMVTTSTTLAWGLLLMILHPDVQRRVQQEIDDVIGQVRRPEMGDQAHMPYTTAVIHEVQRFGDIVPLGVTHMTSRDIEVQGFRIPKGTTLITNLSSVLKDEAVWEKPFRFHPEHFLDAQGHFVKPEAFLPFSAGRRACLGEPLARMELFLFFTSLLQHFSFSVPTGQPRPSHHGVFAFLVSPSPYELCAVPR
T1 sequence (P08684 whole entry): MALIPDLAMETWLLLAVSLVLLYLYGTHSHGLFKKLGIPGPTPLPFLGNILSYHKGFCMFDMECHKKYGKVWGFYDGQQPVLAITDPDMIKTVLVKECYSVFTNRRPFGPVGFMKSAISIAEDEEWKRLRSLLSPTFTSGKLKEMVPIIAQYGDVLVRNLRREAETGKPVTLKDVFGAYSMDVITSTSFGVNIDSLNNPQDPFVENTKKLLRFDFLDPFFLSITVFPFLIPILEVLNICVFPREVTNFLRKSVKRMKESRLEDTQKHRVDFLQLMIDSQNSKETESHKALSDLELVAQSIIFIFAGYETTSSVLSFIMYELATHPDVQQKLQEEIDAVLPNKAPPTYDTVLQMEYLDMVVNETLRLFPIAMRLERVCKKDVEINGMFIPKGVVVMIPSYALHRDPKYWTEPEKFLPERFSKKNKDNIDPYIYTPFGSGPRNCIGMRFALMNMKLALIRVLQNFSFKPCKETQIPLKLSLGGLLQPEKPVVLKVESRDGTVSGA
T3 sequence (P33261 whole entry): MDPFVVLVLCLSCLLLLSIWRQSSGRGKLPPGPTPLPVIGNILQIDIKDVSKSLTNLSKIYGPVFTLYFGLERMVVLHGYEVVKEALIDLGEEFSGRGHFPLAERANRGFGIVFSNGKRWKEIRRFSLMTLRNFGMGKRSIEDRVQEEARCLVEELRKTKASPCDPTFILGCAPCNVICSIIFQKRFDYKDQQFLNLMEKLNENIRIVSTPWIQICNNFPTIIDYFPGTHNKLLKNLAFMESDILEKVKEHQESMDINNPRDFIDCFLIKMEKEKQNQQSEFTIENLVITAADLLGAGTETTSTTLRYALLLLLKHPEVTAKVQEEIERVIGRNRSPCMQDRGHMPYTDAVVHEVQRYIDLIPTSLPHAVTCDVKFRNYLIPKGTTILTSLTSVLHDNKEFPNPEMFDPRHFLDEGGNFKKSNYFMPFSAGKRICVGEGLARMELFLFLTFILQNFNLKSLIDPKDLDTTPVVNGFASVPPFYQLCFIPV

| SMILES | IC50 (CYP3A4 [1]) [µM] | half-life at 5 μM (CYP2D6 [2]) [min] | IC50 (CYP2D6 [3]) [µM] | half-life at 5 μM (CYP2C8) [min] | IC50 (CYP2C19 [4]) [µM] | half-life at 5 μM (CYP2C9 [5]) [min] | half-life at 5 μM (CYP2C19 [6]) [min] | IC50 at 5 min (CYP1A) [µM] | IC50 (CYP2C9 [7]) [µM] | half-life at 5 μM (CYP3A4 [8]) [min] | changes in Mcl-1 levels (in words) (Mcl-1) |
| --- | --- | --- | --- | --- | --- | --- | --- | --- | --- | --- | --- |
| CC[C@@H](Nc1nc(NCc2cccnc2)c2ncn(C(C)C)c2n1)C(C)(C)O [Compound [A1]] | 1.63 | > 45 | > 25 | > 45 | 19.9 | > 45 | 58.3 | > 25 | > 25 | 28.3 |  |
| CC[C@H](CO)Nc1nc(NCc2ccccc2)c2ncn(C(C)C)c2n1 [Seliciclib, seliciclib, reference compound] |  |  |  |  |  |  |  |  |  |  | very modest changes |
| CC[C@H](Nc1nc(NCc2cccnc2)c2ncn(C(C)C)c2n1)[C@@H](C)O [[A3]] | 1.88 | > 45 | > 25 | > 45 | > 25 | > 45 | > 45 | > 25 | > 25 | 18 |  |
| CC[C@H](Nc1nc(NCc2cccnc2)c2ncn(C(C)C)c2n1)C(C)(C)O [[A2]] | 0.48 | > 45 | > 25 | > 45 | > 25 | > 45 | > 45 | > 25 | > 25 | 32.6 |  |
